“And” between values parts separate entries of the source, which are not always exact repeats. Equal entries are not always repeated.
Tests used:
[1] = test system: NCI-H358, MIA PaCa-2, MDA-MB-231 and A375 3D spheroids; test: 3D spheroid growth benchmarking, DSS3, alamarBlue; type: cell-based
Description: 3D spheroid formation assays were performed in 96-well low-attachment, suspension culture plates (cat. no. 655185, Cellstar, Greiner Bio-One) under serum-free condition. About 1,000 (MDA-MB-231, NCI-H358, and MIA PaCa-2) or 2,500 (Hs 578T) cells per well were seeded in 50 μl of either an RPMI medium (cat. no. 52400-025, Gibco, Thermo Fisher Scientific) (MDA-MB-231, A375, and NCI-H358) or DMEM (cat. no. 41965-039, Gibco, Thermo Fisher Scientific) (Hs 578T and MIA PaCa-2), containing 0.5% MethoCult (cat. no. SF H4636, Stemcell technologies), 1x B27 (cat. no. 17504044, Gibco, Thermo Fisher Scientific), 25 ng/ml EGF (cat. no. E9644, Sigma-Aldrich), and 25 ng/ml FGF (cat. no. RP-8628, Thermo Fisher Scientific). Cells were cultured for 3 days and then treated with compounds or vehicle control (DMSO 0.1% v/v in growth medium) for another 3 days. The cells were supplemented with a fresh growth medium on the third day together with the drug treatment. For knockdown experiments, cells were seeded in 12-well plates and treated with either 50 nM scrambled siRNA (cat. no. 1022076, QIAGEN) or indicated concentrations of siRNAs. Next day, cells were collected by trypsinization and re-plated into 96-well plates for 3D spheroid suspension culture.
Spheroid formation efficiency was analyzed by an alamarBlue assay reagent (cat. no. DAL1100, Thermo Fisher Scientific). A 10% final volume of the alamarBlue reagent was added to each well of the plate and incubated for 4 h at 37°C. Then the fluorescence intensity was measured using the FLUOstar OPTIMA plate reader (BMG Labtech, Germany) with an excitation wavelength of 560 ± 5 nm and an emission wavelength of 590 ± 5 nm.
(§1) To quantitatively profile the drug sensitivity with a more robust parameter than the IC50 or EC50 values, the drug sensitivity score (DSS) analysis was employed. DSS values are essentially normalized area under the curve (AUC) measures of dose-response inhibition data ([Yadav et al., 2014]). Drug response data files (in Excel) ready for online analysis were prepared according to the example file obtained from the DSS pipeline website, called Breeze^1 ([Potdar et al., 2020]). Either raw fluorescence intensity measurements or normalized % inhibition data (for BRET assay analysis) were uploaded.
(§2) DSS3 was employed to emphasize drugs that obtain their response area over a relatively wide dose window, as compared to drugs that show increased response only at the higher end of the concentration range. After logistic fitting of the dose-response inhibition data, the area under the curve (AUC) was determined as the exact solution. A 10% minimal activity threshold (t) was set. The maximum (Cmax) and minimum (Cmin) concentrations were used for screening of the inhibitors, with Cmax = x2 and x1 concentration with minimal activity t.

[2] = test system: HRAS mutant cells (Hs 578T, T24); test: 2D viability assay (alamarBlue), DSS3; type: cell-based; conditions: relative to OphA; listed as Calmirasone1
Description: as §1
as §2, with “activity t. […]” for “activity t.”

CC(C)c1ccc2cc(C(F)(F)F)c(=O)c3c(N4CCCCC4)c(C=O)c(c1)c23 [Compound 1]
DSS3 potency relative to K-RasG12C inhibitor AMG-510 in 3D spheroid assays ([1]; relative to AMG-510): ~50%
effect on 3D spheroid growth ([1]; spheroids grown 72 h then treated 72 h): visibly lower activity
lower unspecific toxic effect on HRAS mutant cells as compared to OphA [2]: > 40 fold and 40–260 fold
